Experimental data reported in patent publication US20110171172A1, “COMPOUNDS FOR INHIBITING KSP KINESIN ACTIVITY” (priority 2007, published 2011).

system: HCT116 colon cancer cells; experiment: KSP cellular assay (phospho-histone H3 / MPM2 immunofluorescence); format: cell-based; conditions: Homo sapiens, HCT-116, 16 hours with drug, percent of cells staining positive for Phos-Histone H3 (ser10) / Phos-MPM2
Experimental: HCT116 colon cancer cells were grown in DMEM:F12 media with 10% heat inactivated FBS at 37 degrees with 5% CO2. Cells were plated at 7,500 cells per well in PDL coated 384-well tissue culture plates. 6 hours later media was removed and new media containing drug was added. Cells were incubated with drug for 16 hours. All further steps were performed at room temperature in the dark. Cells were fixed with 25 ul/well Prefer fixation solution plus 250 nM Hoechst dye and incubated for 30 minutes. The fixation solution was removed and cells were washed with PBS. Cells were then permeabilized with 25 uliwell 0.2% Triton-X in PBS and incubated for 10 minutes. Cells were washed with PBS and then incubated with 25 ul/well PBS containing 3% FBS for 30 minutes. Cells were then stained overnight at 4 degrees with 25 uliwell antibody solution in PBS plus 3% FBS. Antibodies used were Phos-Histone H3 (ser10)-Alexa Flur 488 Conjugate and Phos-MPM2 Texas Red Conjugate. Cells were washed with PBS and then immunofluorescence images captured with HT Pathway microscope. The percent of cells staining positive was calculated and EC50 values for the compounds of the invention that were tested were determined using Excel XLfit.
EC50 Determinations: Dose-response curves were plotted from inhibition data generated each in duplicate, from 8 point serial dilutions of inhibitory compounds. Concentration of compound was plotted against enzyme activity (OD reading). To generate EC50 values, the dose-response curves were then fitted to a standard sigmoidal curve and EC50 values were derived by nonlinear regression analysis.

EC50, > 1 µM:
CC(=O)N1N=C(c2cc(F)ccc2F)OC12CCCc1sccc12 (centres unmarked) [compound 101]
CC(=O)N1N=C(c2cc(F)ccc2F)OC12CCSc1ccccc12 (centres unmarked) [compound 102]
CC(=O)N1N=C(c2cc(F)ccc2F)OC12CCCc1ccccc12 (centres unmarked) [compound 103]
CC(=O)N1N=C(c2cc(F)ccc2F)OC12COc1ccccc12 (centres unmarked) [compound 104]
CC(=O)N1N=C(c2cc(F)ccc2F)OC12CCOc1ccccc12 (centres unmarked) [compound 105]
